Data: PMC10872402, “HTS discovery of PARP1-HPF1 complex inhibitors in cancer” (SLAS discovery : advancing life sciences R & D, 2023)
“And” between values parts separate entries of the source, which are not always exact repeats. Equal values may be shown once.

Tests used:
PARP1–HPF1 complex [1] = target: T1, PARP1–HPF1 complex (Homo sapiens, UniProt P09874+Q9NWY4); experiment: FP assay of PARP1–HPF1–DNA complex, PARP-directed library screen; type: biochemical
T1 construct: made in house
Protocol: An Opentrons OT-2 robot was used for all the pipetting steps as described. First, 20 μL of binding buffer was placed into each well of the 384-well assay plate. Next, 10 μL of the pre-formed complex of PARP1 - HPF1 - DNA or PARP2 – HPF1 – DNA (prepared in binding buffer) was added to all wells. Next, 1 μL of the inhibitors from the 12-point dilution were added to the 384-well plate and was incubated with the protein - DNA for 30 min at room temperature (RT). The plate was then transferred to BMG Labtech CLARIOstar plate reader equipped with a syringe injector. The injector was used to add 10 μL of NAD^+ into all wells except for eight control wells. […] Final concentrations were 5 nM p18mer (fluorescein-labeled), 10 nM PARP1/2, 200 nM HPF1, 200 μM NAD^+, and 0.09 μM – 200 μM inhibitor. IC50 values were calculated using a nonlinear regression analysis (sigmoidal dose-response fitting with variable slope) with the following equation: Y = Bottom + (Top – Bottom)/(1 + 10(LOGIC50 – X) · HILL SLOPE) using GraphPad Prism.
We base our assay method on our previously described fluorescence polarization (FP) assay for measuring the activity of PARP1 [15]. […] (Fig. 2A). For the inhibition assay, the complex is incubated with potential inhibitors and the PARylation reaction is initiated by the addition of NAD^+. […]

[2] = test system: PAR in the nucleus of SUM149PT cells; experiment: PAR immunofluorescence in SUM149PT cells with MMS; type: cell-based; settings: 10 and 12.5 μM, 5 h, 0.01 % MMS; for amount of PAR in the nucleus: p<0.05 for 145 and 88, p<0.001 for 4
Protocol: 18,000 SUM149PT cells were seeded into a 96 well PhenoPlate (Revvity) and allowed to adhere overnight. Cells were then treated with the selected hits at a concentration of 10 or 12.5 μM and 0.01 % final concentration of MMS for 5 h. The medium was then aspirated, and cells were fixed with 4 % paraformaldehyde for 15 min at room temperature (RT). After washing twice with PBS, cells were incubated with 0.3 % Triton X-100 for 15 min followed by another washing step. To decrease unspecific binding of the antibodies, cells were blocked in 5 % milk for 30 min at RT. Afterwards, cells were incubated with the anti-PAR primary antibody at a 1:1000 dilution for 2 h at RT. Cells were washed again and incubated with a goat anti-mouse AlexaFluor 647 secondary antibody at a 1:500 dilution for […] at RT. Finally, cells were washed, stained with Hoechst 33342 (1:1000), and imaged using a 40x water objective on the Phenix Plus High-Content Screening (HCS) System (Revvity). Each bar graph is representative of two experiments, each with three replicates of whole-well analysis per condition. The reported data represents the average of each cell within the replicates, plotted with standard deviation error bars.

PARP1–HPF1 complex [3] = target: T1, PARP1–HPF1 complex; experiment: FP assay of PARP1–HPF1–DNA complex, dose response of hits from the 10,000 compound pilot HTS; type: biochemical; settings: dose response of HTS hits in duplicate; 10 nM PARP1, 100 nM HPF1, 15 min
Protocol: A Revvity G3 Explorer collaborative robot equipped with a freezer containing the drug library, a Revvity Janus liquid handler, and a Revvity Envision was used to carry out the screen. A ChemBridge diversity library containing 10,000 compounds was used for screening. Two identical daughter plates (2 mM) were generated, one for HTS and one for cherry-picking hits identified from HTS. The drug library was maintained in a LiCONiC STX500-DF Deep Freezer at −20 °C with 80 % N2. Binding buffer (13 μL) with 0.04 % DMSO was added to columns 23 and 24 of 32 384-well plates (Corning 3575). Next, 24.5 μL binding buffer was added to all wells on the plates. Then, 0.5 μL of 2 mM stock solutions for each of the 10,000 compounds was added to separate wells, giving a final concentration of 20 μM, excluding columns 1, 2, 23, and 24. Afterwards, 12.5 μL premix (PARP1 – HPF1 – DNA, at 10 nM PARP1, 100 nM HPF1, and 5 nM FITC-labeled p18mer DNA) was added to all wells. Next, 12.5 μL of 2 mM NAD^+ was added to each well.
Dose response curves for the hits were performed using the same Revvity robot system as for the initial screen. Binding buffer (13 μL) with 0.04 % DMSO was added to columns 23 and 24 of 32 different Corning (Cat. No. 3575) plates. Next, 25 μL binding buffer was added to all wells on the plates. Cherry-picked compound plates generated from the compound source used in the initial HTS were used to add 1 compound per column from 20 to 160 nM in duplicate with 2x serial dilution using a Revvity FlexDrop iQ instrument. A 12.5 μL premix (PARP1 – HPF1 – DNA, as above) was added to all wells. Afterwards, 12.5 μL of 2 mM NAD^+ was added to each well and plates were incubated for 15 min at RT. The FP signal was read as above, and data for screened compounds was normalized between 100 % (positive control, […]) and 0 % (negative control, rows 1 and 2). Dose response curves were plotted and fit using GraphPad Prism with a non-linear regression analysis as described above.

SUM149PT tumor organoids = experiment: Tumor organoid cytotoxicity, CellTiter-Glo 3D; type: cell-based; settings: Homo sapiens, 96 h, read-out: IC50 tumor organoid viability
Protocol: SUM149PT cells were plated at 2000 cells/well into 96-well Clear Round Bottom Ultra-Low Attachment plates (Cat. No. 7007, Corning, Corning, NY) in complete growth medium. Cell assay plates were centrifuged at 1000 RPM for 15 min to promote cellular aggregation, then 25 μL of cold Growth-Factor Reduced (GFR) Matrigel (10 %) was added per well for a final concentration of 2 %. […] Briefly, tumor organoids were transferred to 96-well CELLSTAR white solid bottom plates (Cat. No. 655083, Greiner Bio-One, Monroe, NC), 40 μL (1:1) of CellTiter-Glo 3D was added to each well and plates were then placed on an orbital shaker at 450 RPM for 45 min at room temperature. CellTiter-Glo 3D’s luminescence signal was assessed using the Envision microplate reader (Revvity, Waltham, MA) with a measurement time of 100 ms. The experiment was done with triplicate organoids per condition, and IC50.values were calculated as described above.

cancer cells = test system: cancer cells; set-up: method as in PMID 35259019; settings: read-out: IC50 cytotoxic activity; cited from earlier work

T1 sequence (P09874 whole entry): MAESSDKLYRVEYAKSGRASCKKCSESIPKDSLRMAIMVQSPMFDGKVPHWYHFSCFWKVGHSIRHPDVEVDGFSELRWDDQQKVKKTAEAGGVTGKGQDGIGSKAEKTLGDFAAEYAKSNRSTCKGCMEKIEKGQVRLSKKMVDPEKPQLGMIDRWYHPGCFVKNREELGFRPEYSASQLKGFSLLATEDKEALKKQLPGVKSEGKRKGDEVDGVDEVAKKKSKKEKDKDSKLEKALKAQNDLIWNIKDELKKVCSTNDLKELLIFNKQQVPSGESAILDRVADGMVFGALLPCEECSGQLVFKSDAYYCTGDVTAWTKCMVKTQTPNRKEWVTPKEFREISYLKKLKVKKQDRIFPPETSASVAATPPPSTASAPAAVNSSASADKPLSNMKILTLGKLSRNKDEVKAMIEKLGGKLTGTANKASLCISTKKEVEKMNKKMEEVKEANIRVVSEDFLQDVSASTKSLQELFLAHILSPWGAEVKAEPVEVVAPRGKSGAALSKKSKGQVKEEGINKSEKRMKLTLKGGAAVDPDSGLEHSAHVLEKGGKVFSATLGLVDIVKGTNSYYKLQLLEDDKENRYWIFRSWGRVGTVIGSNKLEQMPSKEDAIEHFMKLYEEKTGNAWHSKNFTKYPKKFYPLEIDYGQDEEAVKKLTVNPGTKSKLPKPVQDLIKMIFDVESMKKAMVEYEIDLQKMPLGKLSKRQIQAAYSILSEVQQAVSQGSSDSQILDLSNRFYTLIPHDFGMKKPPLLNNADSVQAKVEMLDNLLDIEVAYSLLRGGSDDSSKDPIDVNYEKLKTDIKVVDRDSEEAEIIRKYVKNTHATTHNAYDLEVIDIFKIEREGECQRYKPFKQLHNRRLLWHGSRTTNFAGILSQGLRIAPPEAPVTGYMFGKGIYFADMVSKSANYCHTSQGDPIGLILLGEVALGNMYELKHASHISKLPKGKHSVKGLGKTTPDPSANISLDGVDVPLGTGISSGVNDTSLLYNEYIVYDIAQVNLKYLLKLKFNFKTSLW
T1 sequence (Q9NWY4 whole entry): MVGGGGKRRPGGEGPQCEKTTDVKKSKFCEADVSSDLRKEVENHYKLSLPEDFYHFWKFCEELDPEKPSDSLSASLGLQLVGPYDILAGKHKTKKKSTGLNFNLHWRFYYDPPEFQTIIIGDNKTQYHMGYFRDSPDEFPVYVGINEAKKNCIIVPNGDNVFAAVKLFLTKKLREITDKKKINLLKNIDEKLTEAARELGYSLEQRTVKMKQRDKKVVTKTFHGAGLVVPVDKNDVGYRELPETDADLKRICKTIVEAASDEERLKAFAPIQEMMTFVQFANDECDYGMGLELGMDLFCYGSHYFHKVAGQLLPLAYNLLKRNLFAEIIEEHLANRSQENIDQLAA

In the case of `NC(=O)c1ccccc1` [benzamide, reference compound], the IC50 (PARP1–HPF1 complex [1]) is reported as 14 µM.

With `O=C(COc1ccccc1)c1cn(CC(=O)N2CCOCC2)c2ccccc12` [compound 4] the “inhibition of PARylation” value [2] was “dose-dependent inhibition of PARylation”, the “amount of PAR in the nucleus” value [2] was “reduced PAR at all doses” and the IC50 (PARP1–HPF1 complex [3]) was ~1 µM and 1.07 µM. For the same compound, the IC50 (SUM149PT tumor organoids) was 251 µM.

Work on `CCNCC#CCOc1ccc(Br)cc1` [compound 60] yielded an IC50 (PARP1–HPF1 complex [3]) of 7.77 µM.

In the case of `COc1cccc(-c2nc(CC(=O)Nc3ccc(C)c(C)c3)no2)c1` [compound 88], the “inhibition of PARylation” value [2] is reported as “dose-dependent inhibition of PARylation”, the “amount of PAR in the nucleus” value [2] is reported as “decreased the amount of PAR in the nucleus at the higher dose tested” and the IC50 (PARP1–HPF1 complex [3]) is reported as 13.5 µM.

In the case of `CCNCC#CCOc1cccc(C(F)(F)F)c1` [compound 89], the IC50 (PARP1–HPF1 complex [3]) is reported as 13.8 µM.

In the case of `CNCC#CCOc1ccc(Cl)c(C)c1` [compound 110], the IC50 (PARP1–HPF1 complex [3]) is reported as 20.4 µM.

Compound `CCNC/C=C/COc1ccccc1OCC` [compound 116] has an IC50 (PARP1–HPF1 complex [3]) of 22.6 µM.

With `N#Cc1c(NC(=O)C#Cc2ccccc2)sc2c1CCC2` [compound 145] the “inhibition of PARylation” value [2] was “dose-dependent inhibition of PARylation”, the “amount of PAR in the nucleus” value [2] was “decreased the amount of PAR in the nucleus at the higher dose tested” and the IC50 (PARP1–HPF1 complex [3]) was 36.8 µM.

Compound `N#Cc1sc2nc(-c3ccc(F)cc3F)ccc2c1N` [compound 151] has an IC50 (PARP1–HPF1 complex [3]) of 40.7 µM.

In the case of `O=C(c1cc(Cc2n[nH]c(=O)c3ccccc23)ccc1F)N1CCN(C(=O)C2CC2)CC1` [olaparib, reference compound], the IC50 (cancer cells) is given as > 50 µM and the IC50 (SUM149PT tumor organoids) is given as 85 µM.
